Converted amounts (≈) assume the structure as drawn.
How the values were obtained:
[1] = Inhibition of Mycobacterium tuberculosis H37Rv glutamine synthetase expressed in Escherichia coli GJ4745 after 1 hr
[2] = test system: Mycobacterium tuberculosis; assay: Antitubercular activity against Mycobacterium tuberculosis H37Rv ATCC 27294 after 5 days by resazurin microtitre assay; type: functional; settings: H37Rv ATCC 27294, 120 h
[3] = test system: A549; assay: Cytotoxicity against human A549 cells after 72 hrs by resazurin reduction assay; type: cell-based; settings: A549, 72 h
[4] = Selectivity ratio of IC50 for human A549 cells to MIC for Mycobacterium tuberculosis H37Rv ATCC 27294; type: functional

Row | Compound | IC50 [1] [µM] | MIC [2] [µg/mL] | further results
1 | COc1ccc2cc(-c3nc(C(C)(C)C)[nH]c3-c3ccncc3)ccc2c1 | 3.1 | > 32 | –
2 | COc1ccc2cc(-c3nc(C(C)(C)C)[nH]c3-c3ccccc3)ccc2c1 | > 25 | – | –
3 | COc1ccc2cc(-c3nc(C(C)(C)C)[nH]c3-c3ncccn3)ccc2c1 | > 25 | – | –
4 | COc1ccc2cc(-c3nc(C(C)(C)C)[nH]c3-c3cncnc3)ccc2c1 | > 25 | – | –
5 | CCc1nc(-c2ccc3cc(OC)ccc3c2)c(-c2ccncc2)[nH]1 | 2.2 | > 32 | –
6 | COc1ccc2cc(-c3nc(C)[nH]c3-c3ccncc3)ccc2c1 | > 25 | – | –
7 | COc1ccc2cc(-c3nc[nH]c3-c3ccncc3)ccc2c1 | > 25 | – | –
8 | COc1ccc2cc(-c3nc(COCc4ccccc4)[nH]c3-c3ccncc3)ccc2c1 | > 25 | – | –
9 | COc1ccc2cc(-c3nc(CO)[nH]c3-c3ccncc3)ccc2c1 | > 25 | – | –
10 | COc1ccc2cc(-c3nc(C(C)(C)c4ccccc4)[nH]c3-c3ccncc3)ccc2c1 | > 25 | – | –
11 | COc1ccc2cc(-c3nc(-c4cccc(O)c4)[nH]c3-c3ccncc3)ccc2c1 | > 25 | – | –
12 | COc1ccc2cc(-c3nc(-c4ccc[nH]4)[nH]c3-c3ccncc3)ccc2c1 | > 25 | – | –
13 | COc1ccc2cc(-c3nc(C(C)(C)C)[nH]c3-c3ccnc(F)c3)ccc2c1 | 1.2 | 64 (≈ 170 µM) | –
14 | COc1ccc2cc(-c3nc(C(C)(C)C)[nH]c3-c3ccnc(N)c3)ccc2c1 | – | 2 (≈ 5.37 µM) | IC50 [3]: 24.7 µM; Ratio IC50 [4]: 5
15 | CNc1cc(-c2[nH]c(C(C)(C)C)nc2-c2ccc3cc(OC)ccc3c2)ccn1 | 5.2 | 8 (≈ 20.7 µM) | –
16 | COc1ccc2cc(-c3nc(C(C)(C)C)[nH]c3-c3ccnc(N(C)C)c3)ccc2c1 | > 25 | – | –
17 | CC(C)(C)c1nc(-c2cnc3ccccc3c2)c(-c2ccncc2)[nH]1 | – | > 32 | –
18 | COc1ccc2cc(-c3nc(-c4ccccc4)[nH]c3-c3ccncc3)ccc2c1 | > 25 | – | –

Source: ChEMBL document CHEMBL2029286, “Trisubstituted imidazoles as Mycobacterium tuberculosis glutamine synthetase inhibitors” (J Med Chem, 2012)
